Laboratory results published in ChEMBL document CHEMBL1136374, “Inactivation of S-adenosyl-L-homocysteine hydrolase with novel 5'-thioadenosine derivatives. Antiviral effects” (Bioorg Med Chem Lett, 2003).
≈ marks a conversion by molar mass, not a printed value.

Test system: Vaccinia virus
Assay: Cytopathogenicity against vaccinia virus
Type: functional
Conditions: Orthopoxvirus vaccinia

SMILES: C=CSC[C@H]1OC(n2cnc3c(N)ncnc32)[C@H](O)[C@@H]1O (stereo partly specified)
- MIC: 30 µM (≈ 9.28 µg/mL)
